# According to patent publication US6818208B2, “Use of a flavonoid extract of ginkgo biloba substantially devoid of terpenes, in the dentibuccal field, and composition containing such extract” (Societe de Conseils de Recherches et d'Applications …, priority 1996, dated 2004):
# Molecular target: T1, human leucocyte elastase (HLE) (Homo sapiens, UniProt P08246)
# T1 sequence (P08246 30-267): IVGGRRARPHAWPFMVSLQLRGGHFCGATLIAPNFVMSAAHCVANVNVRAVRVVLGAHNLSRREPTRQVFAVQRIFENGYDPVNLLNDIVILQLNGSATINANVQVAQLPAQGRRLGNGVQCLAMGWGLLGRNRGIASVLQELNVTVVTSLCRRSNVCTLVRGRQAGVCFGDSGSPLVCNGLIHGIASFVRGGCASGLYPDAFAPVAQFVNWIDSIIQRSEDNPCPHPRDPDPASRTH
# Assay: Anti-elastasic activity ex vivo on frozen sections of human gums (elastic fibres remaining, morphometric quantification by image analysis)
# Format: biochemical
# Conditions: HLE + PMSF, HLE 10 μm/ml, two hours
# Experimental: The purpose of this study is therefore to study the anti-elastasic activity of an extract as defined above, alone or in combination with ceramides. This activity is evaluated on sections of human gums.
# The ceramides used, of vegetable origin, are obtained according to a process as described in Patent FR 2676936 incorporated by way of reference, a process which comprises exctraction from wheat, using a polar extraction solvent followed by recrystallization from an organic solvent. They are essentially composed of glucosylceramides and ceramides.
# For this purpose, the elastic fibre network is subjected to human leucocyte elastase (HLE), with or without an anti-elastasic product. The elastic fibres remaining after enzymatic action are stained with (+) catechin.
# Frozen sections of 8 μm are carried out from 5 samples obtained from biopsies of normal buccal mucosa, taken during dental extractions.
# In a first stage, the concentration in human leucocyte elastase required for the destruction of elastic fibres is determined: leucocyte elastase is applied to the skin sections for two hours at ambient temperature and in a humid atmosphere; after fixing in acetone and dehydration in ethanol at […], the remaining elastic fibres are stained with (+) catechin. Total destruction of the elastic fibres is obtained in the presence of 10 μm/ml of human leucocyte elastase.
# The anti-elastasic activity of the products is compared with that of (PMSF), a powerful elastase inhibitor.
compound,measurement,setting,value
O=S(=O)(F)Cc1ccccc1 [PMSF],% of elastic fibres remaining after treatment with human leucocyte elastase,lower corium dermis,70%
same,% of elastic fibres remaining after treatment with human leucocyte elastase,medium corium dermis,55%
same,% of elastic fibres remaining after treatment with human leucocyte elastase,upper corium dermis,25%
